Results published in patent US6780876B2, “Composition for keeping away vermin” (Novartis Animal Health US, Inc., priority 1998, dated 2004).

Columns and labels:
[1] = test system: Boophilus Microplus Biarra (larvae); test: Arena test in vitro against Boophilus microplus Biarra (larvae); type: in vivo; settings: even up to a dilution of 10 μg/cm^2
Description: (§1) This method is carried out in titre plates having 6 wells with a cross-section of 5 cm each, using a computer-supported video system. Each well of the titre plate is lined with a circular filter paper or another suitable carrier material. The substance of formula I to be tested is dissolved in methanol, acetonitrile or another suitable solvent, with ultrasound treatment and heating being employed for poorly-soluble substances. In an amount of 1 to 100 μg/cm^2, the dissolved test substance is placed in the centre of the filter paper on a quadrant or circular area of ca. 2.4 cm^2 radius. 4 of the 6 wells are filled with different test substances or with the same test substance in different dilutions (e.g. 1, 3.2, 5, 10 and 20 μg/cm^2). The 5th well is treated with DEET (N,N-diethyl-m-toluamide) as standard substance. The 6th well is filled with the pure solvent and serves as a control. 60 to 100 larvae or 25 to 50 nymphs or 10 to 25 adults of the parasite to be tested, e.g. ticks, are added to each filter paper, and the system is covered with a pane of glass and positioned under a video camera. At intervals of 5 seconds, the video camera takes individual pictures of all 6 wells. […] 6 or with the standard in the 5th well. […] In this way, neutral and deterring substances are determined. At the same time, the duration of activity of the test substance is determined and compared with that of the standard. By plotting all the images for each individual well over one another, different areas of density are obtained. This represents the frequency at which the parasites visit certain places. This frequency is evaluated statistically and thus quantitatively by the Willcoxon method in a comparison with the control and with the standard.
Arena Test in vitro Against Boophilus Microplus Biarra (larvae)
The test is carried out as described above, with ca. 60 to 100 larvae being added per well. 10 mg of dissolved test substance is applied to an area of 2.4 cm^2 radius.

[2] = test system: Rhipicephalus Sanguineus (nymphs); test: Arena test in vitro against Rhipicephalus sanguineus (nymphs); type: in vivo; settings: even up to a dilution of 10 μg/cm^2
Description: as §1
Arena Test in vitro Against Rhipicephalus Sanguineus (nymphs)
A test is carried out analogously to example B using ca. 40 to 50 nymphs.

ticks = test: Arena test method for testing vermin-deterring substances; type: in vivo; settings: 1 to 100 μg/cm^2 on filter paper; video evaluation against solvent control and DEET standard
Description: Arena Test Method for Testing Vermin-deterring Substances
(§2) This method is carried out in titre plates having 6 wells with a cross-section of 5 cm each, using a computer-supported video system. Each well of the titre plate is lined with a circular filter paper or another suitable carrier material. The substance of formula I to be tested is dissolved in methanol, acetonitrile or another suitable solvent, with ultrasound treatment and heating being employed for poorly-soluble substances. In an amount of 1 to 100 μg/cm^2, the dissolved test substance is placed in the centre of the filter paper on a quadrant or circular area of ca. 2.4 cm^2 radius. 4 of the 6 wells are filled with different test substances or with the same test substance in different dilutions (e.g. 1, 3.2, 5, 10 and 20 μg/cm^2). The 5th well is treated with DEET (N,N-diethyl-m-toluamide) as standard substance. The 6th well is filled with the pure solvent and serves as a control. 60 to 100 larvae or 25 to 50 nymphs or 10 to 25 adults of the parasite to be tested, e.g. ticks, are added to each filter paper, and the system is covered with a pane of glass and positioned under a video camera. At intervals of 5 seconds, the video camera takes individual pictures of all 6 wells. For a qualitative evaluation, these images are observed in a time-lapse as a continuous film, optically following the movements of the parasites on the filter paper and comparing them with the movements in the control well no. 6 or with the standard in the 5th well. A qualitative observation is thus made as to whether the test parasites move evenly over the whole surface of the filter paper and ignore the test substance, or whether and over what period they avoid the treated zone, and what influence the dilution of the test substance has on the behaviour of the test parasites. In this way, neutral and deterring substances are determined. At the same time, the duration of activity of the test substance is determined and compared with that of the standard. By plotting all the images for each individual well over one another, different areas of density are obtained. This represents the frequency at which the parasites visit certain places. This frequency is evaluated statistically and thus quantitatively by the Willcoxon method in a comparison with the control and with the standard. Compounds of Table 1, for example nos.

[3] = test system: Amblyomma Hebraeum or Variegatum (nymphs); test: Arena test in vitro against Amblyomma hebraeum or variegatum (nymphs); type: in vivo; settings: even up to a dilution of 3.2 μg/cm^2
Description: as §2
Arena Test in vitro Against Amblyomma Hebraeum or Variegatum (nymphs)
The test is carried out as described above, with ca. 25 to 50 nymphs being added per well. 10 mg of dissolved test substance is applied to an area of 2.4 cm^2 radius. […] 1.26 to 1.36, 1.40, 1.45, 1.47, 1.95, 1.96, 1.97, 1.137, and 1.139, even up to a dilution of 3.2 μg/cm^2.

[4] = test system: certain plant damaging insects; settings: cited from earlier work

Structure (SMILES) | long-term deterring activity [1] | long-term deterring activity [2] | vermin-deterring activity in the arena test (ticks) | long-term deterrent activity [3] | activity as a deterrent [4]
CCCCCCCCCCC(O)C1CCCCN1C(C)=O (stereo not drawn) [Compound 1.140, N-acetyl-2-[(1-hydroxy)(1-undecyl)]piperidine] | Particularly marked long-term activity |  |  |  | 
CCCCCCCCCCCCCCCCCCC(O)C1CCCCN1 (stereo not drawn) [Compound 1.36, 2-[n-(1-hydroxynonadecyl)]piperidine] |  | Particularly marked long-term activity |  |  | 
CCCCCCCCCCCCC(O)C1CCCCN1 (stereo not drawn) [Compound 1.29, 2-[n-(1-hydroxytridecyl)]piperidine] |  | Particularly marked long-term activity |  |  | 
CCCCCCCCCCCCCCC(O)C1CCCCN1 (stereo not drawn) [Compound 1.32, 2-[n-(1-hydroxypentade-cyl)]piperidine] |  | Particularly marked long-term activity |  |  | 
CC(C)c1ccc(C(O)C2CCCCN2)cc1 (stereo not drawn) [Compound 1.95, 2-[(1-[4-isopropyl-phenyl])(1-hydroxy)methyl]piperidine] | Particularly marked long-term activity |  | excellent activity | Particularly marked long-term activity | 
CC1(C)CCCC(C(O)c2ccc(Cl)cc2)N1 (stereo not drawn) [Compound 1.101, 6,6-dimethyl-2-[(1-[4-chlorphenyl])(1-hydroxy)methyl]piperidine] |  |  | excellent activity |  | 
CCCCCCCCCCCCCCCCC(O)C1CCCCN1 (stereo not drawn) [Compound 1.34, 2-[n-(1-hydroxyheptadecyl)]piperidine] |  | Particularly marked long-term activity |  |  | 
CC(C)c1ccc(C(O)C2CCCCN2C)cc1 (stereo not drawn) [Compound 1.96, N-methyl-2-[(1-[4-isopropylphenyl])(1-hydroxy)methyl]-piperidine] | Particularly marked long-term activity | Particularly marked long-term activity | excellent activity | Particularly marked long-term activity | 
Cc1ccc(C(O)C2CCCCN2)cc1 (stereo not drawn) [Compound 1.89, 2-[(1-[4-methylphenyl])(1-hydroxy)methyl]piperidine] |  |  | excellent activity |  | 
OC[C@H]1NC[C@H](O)[C@@H](O)[C@@H]1O [deoxynojirimicin] |  |  |  |  | slight activity
CC1(C)CCCC(C(O)c2ccc(Cl)cc2)N1 (stereo not drawn) [Compound 1.139, 6,6-dimethyl-2-[(1-[4-chlorphenyl])(1-hydroxy)methyl]piperidine] | Particularly marked long-term activity | Particularly marked long-term activity | excellent activity | Particularly marked long-term activity | 
COc1ccc(C(O)C2CCCCN2)cc1 (stereo not drawn) [Compound 1.97, 2-[(1-[4-methoxyphenyl])(1-hydroxy)methyl]piperidine] | Particularly marked long-term activity |  | excellent activity | Particularly marked long-term activity | 
CCCCCCCCCCC(O)C1CCCCN1 (stereo not drawn) [Compound 1.27, 2-[n-(1-hydroxyundecyl)]piperidine] |  | Particularly marked long-term activity |  |  | 
CN1CCCCC1C(O)c1ccccc1 (stereo not drawn) [Compound 1.45, N-me-thyl-2-[(1-phenyl)(1-hydroxy)methyl]piperidine] | Particularly marked long-term activity | Particularly marked long-term activity | excellent activity | Particularly marked long-term activity | 
OC(c1ccccc1)C1CCCCN1 (stereo not drawn) [Compound 1.44, 2-[(1-phenyl)(1-hydroxy)methyl]piperidine] |  |  | excellent activity |  | 
OC(c1ccccc1)C1CCCCN1 (stereo not drawn) [Compound 1.40, 2-[(1-phenyl)(1-hydroxy)methyl]piperidine] | Particularly marked long-term activity | Particularly marked long-term activity |  | Particularly marked long-term activity | 
OC(c1ccccc1)(c1ccc2c(c1)CCO2)C1CCCCN1 (stereo not drawn) [Compound 1.59] |  | Particularly marked long-term activity | excellent activity |  | 
CCCCCCCCCCC(O)C1CCCCN1C(=O)OCC (stereo not drawn) [Compound 1.141, N -ethoxycarbonyl--2-[(1-hydroxy)(1-undecycl)]piperidine] | Particularly marked long-term activity |  |  |  | 
OC(COCc1ccccc1)C1CCCCN1 (stereo not drawn) [Compound 1.137] | Particularly marked long-term activity | Particularly marked long-term activity | excellent activity | Particularly marked long-term activity | 
Cc1ccc(C(O)C2CCCCN2C)cc1 (stereo not drawn) [Compound 1.87, N-methyl-2-[(1-[4-methylphenyl])-(1-hydroxy)methyl]piperidine] |  |  | excellent activity |  | 
